The values below come from patent US20120196858A1, “METHOD OF PROMOTING APOPTOSIS AND INHIBITING METASTASIS” (Poniard Pharmaceuticals ,Inc., priority 2009, published 2012).

In data set [1] the target is T1, c-Src (pY416 Src) (Mus musculus, UniProt P05480).
T1 construct: endogenous in cells; host or cells: 4T1 murine mammary carcinoma cells
In words: Phospho-specific immunoblotting of Src pY416 in 4T1 cells. The class given is cell-based, murine. (A western blot detects proteins with antibodies after separation by electrophoresis.)

For data set [2], the system named is 4T1 cells. In words: Millicell chamber motility assay (fibronectin, serum chemotaxis). To be noted: Mus musculus, 4 h, read-out: maximal inhibition of cell movement. The class given is cell-based, murine. The method, then:
(§1) Cell migration assays: Serum-stimulated chemotaxis using Millicell (12 mm diameter with 8 μm pores; Millipore) chambers were performed as described previously^49. Both sides of membrane were coated with fibronectin (10 μg/ml) and chemotaxis was stimulated by addition of 10% FBS to the lower chamber. Data points represent cell counts (9 fields) from three migration chambers from at least two independent experiments. For scratch-wound closure motility assays, cells were seeded onto fibronectin-coated (10 μg/ml) glass bottom 12 well plates (MatTek) and serum starved (0.5% FBS) for 16 h. Cells were wounded with a pipette tip, washed with phosphate-buffered salin (PBS), and replenished with 10% FBS media with or without FAK inhibitor (1 μM). Time-lapse series was obtained by acquiring images at 10 min intervals for up to 22 h, at 37° C. with humidity and CO2 regulation using a 10× objective on an automated stage (Olympus IX81). Cell trajectories and distance traveled were measured by tracking nucleus position over time using Image J.

For data set [3], the system named is 4T1 cells. In words: Annexin V binding by flow cytometry. It is filed as cell-based, murine. The following applies: 24 h. The protocol:
Cell pellets were resuspended in 300 p. 1 of PBS containing propidium iodide (PI) (10 μg/ml), DNAse-free RNAse (100 μg/ml, Qiagen), and then incubated at 37° C. with agitation for 1 h. Samples were analyzed by flow cytometry (FACSCalibur, Becton-Dickinson) and cell cycle analyses were performed by ModFit LT3.2 software (Verity software house). Hypodiploid DNA content as a measure of cell apoptosis was detected by PI staining as described ^29. […] Quadrant gates were positioned based on cell autofluorescence (negative) staurosporine-treated (positive) controls. Apoptosis was calculated to be the percent of annexin V-positive cells. In the soft agar assays, apoptosis was quantified by visual inspection of at least 200 cells and was defined as the appearance of membrane blebbing or cell shrinkage. Apoptosis was also detected by appearance of cleaved caspase-3 antibody reactivity in protein lysates by immunoblotting.
On the technique in general: In flow cytometry, cells or beads pass a laser one at a time.

Data set [4] deals with T2, FAK Tyr-397 phosphorylation (Homo sapiens, UniProt Q05397).
T2 construct: endogenous in cells; host or cells: MDA-MB-231 human breast carcinoma cells
In words: Anti-phospho-specific immunoblotting of FAK Tyr-397 in human breast carcinoma cells. The class given is cell-based. From the text:
(§2) Immunoblotting: Protein extracts of cells were made using lysis buffer containing 1% Triton X-100, 1% sodium deoxycholate, and 0.1% SDS and were separated by 4-12% SDS-PAGE (sodium dodecyl sulfate polyacrylamide gel electrophoresis) and sequential immunoblotting performed as described in Mitra S K, Lim S T, Chi A, Schlaepfer D D. Intrinsic focal adhesion kinase activity controls orthotopic breast carcinoma metastasis via the regulation of urokinase plasminogen activator expression in a syngeneic tumor model. Oncogene 2006; 25:4429-40. Relative expression levels and phospho-specific antibody reactivity were measured by densitometry analyses of blots using Image J (version 1.42q). Inhibition of FAK and p130Cas tyrosine phosphorylation was quantified by calculating the ratio of pY397 FAK protein to total FAK. Similar analyses were performed for p130Cas using pY410 p130Cas and total p130Cas blot data.

For data set [5], the system named is 4T1 cells. In words: Time lapse scratch-wound closure motility assay. The class given is cell-based. The method, then:
as §1

The target in data set [6] is T3, TrkA (tropomyosin-related kinase A) (Homo sapiens, UniProt P04629).
T3 construct: purchased Millipore (KinaseProfiler service)
In words: Millipore KinaseProfiler selectivity screen. It is filed as biochemical. The protocol: Baculovirus FAK catalytic domain and in vitro kinase assays: The FAK catalytic domain region (411-686) was generated by polymerase chain reaction using the primers 5′-[…]-3′ 5′-[…]-3′, cloned into pGEX4T as a fusion with GST, and moved into the pAcG2T baculovirus expression vector (Pharmingen, Baculogold). Virus clones were identified by plaque assays and amplified. For protein expression, SF9 cells were transduced at a multiplicity of infection of 2-5 pfu/cell and cultured at 27° C. for 48 h. Glutathione agarose affinity chromatography were used to purify GST-FAK (411-686) followed by size fractionation using hiload 16/60 Superdex chromatography (GE Healthcare). Protein was concentrated and stored frozen in 50 mM Tris pH 8.0, 150 mM NaCl, 1 mM Na orthovanadate, 0.5 mM EDTA, 0.5 mM EGTA, 0.1% β-mercaptoethanol, and 20% glycerol. Purity was estimated at >90% by SDS-PAGE. GST-FAK in vitro kinase activity was measured and compared to His-tagged FAK 411-686 (Millipore) using the K-LISA screening kit (Calbiochem) and poly(Glu:Tyr) (4:1) copolymer (P0275, Sigma) as a substrate immobilized on microtiter plates. […] Serial diluted compounds at ½-Log concentrations (starting at 1 μM) were tested in triplicate. Substrate phosphorylation was measured using horseradish peroxidase-conjugated anti-pTyr antibodies (PY20, Santa Cruz Biotechnology) with spetrophotometic color quantitation. IC50 values were determined using the Hill-Slope Model. Kinase selectivity profiling was performed by using the KinaseProfiler service (Millipore).

In data set [7] the target is T4, FAK Tyr-397 phosphorylation (Mus musculus, UniProt P34152).
T4 construct: endogenous in cells; host or cells: 4T1 murine mammary carcinoma cells
In words: Anti-phospho-specific immunoblotting of FAK pY397 in 4T1 cells. It is filed as cell-based, murine.
Description: as §2

For data set [8], the system named is MDA-MB-231 cells. In words: Apoptosis assay of suspended cells (annexin V, flow cytometry). It is filed as cell-based, human. To be noted: up to 10 μM, within 6 h. The method, then:
Quadrant gates were positioned based on cell autofluorescence (negative) staurosporine-treated (positive) controls. Apoptosis was calculated to be the percent of annexin V-positive cells.

The test system of data set [9] is MDA-MB-231 cells. In words: Experimental metastasis assay (tail vein injection). To be noted: 150 mg/kg p.o. pre-administered; 1 and 6 h. The class given is in vivo, nude mice. The protocol:
To determine experimental metastasis burden, lungs were removed 1 and 6 h post cell injection, rinsed in PBS, and dorsal plus ventral fluorescent images acquired using OV100 imaging. A common threshold for mCherry fluorescence was set for all images and the total fluorescent lung area was calculated using Image J.

Data set [10] has as its system interleukin-6 (IL-6) production in 4T1 cells. In words: IL-6 ELISA after TNFα stimulation. It is filed as cell-based, murine. To be noted: 0.25 to 1.0 μM; TNFα 10 ng/ml, 24 h. The method, then:
After 1 h, recombinant tumor necrosis factor-α (TNFα eBioScience) was added (10 ng/ml) and after 24 h, IL-6 levels in conditioned media were measured using anti-mouse IL-6 ELISA kit (eBioScience).
(In general: In an ELISA, binding on a coated surface is turned into a signal by an enzyme label.)

Data set [11] concerns caspase 3 cleavage in 4T1 cells. In words: Cleaved caspase 3 immunoblotting of cell lysates. The class given is cell-based, murine. The following applies: 24 h.
Description: as §2, with “Similar analyses were performed for p130Cas using pY410 p130Cas and total p130Cas blot data.” left out
Cell pellets were resuspended in 300 p. […] Samples were analyzed by flow cytometry (FACSCalibur, Becton-Dickinson) and cell cycle analyses were performed by ModFit LT3.2 software (Verity software house). Hypodiploid DNA content as a measure of cell apoptosis was detected by PI staining as described ^29. […] Apoptosis was calculated to be the percent of annexin V-positive cells. In the soft agar assays, apoptosis was quantified by visual inspection of at least 200 cells and was defined as the appearance of membrane blebbing or cell shrinkage. […]

T4 sequence (P34152 whole entry): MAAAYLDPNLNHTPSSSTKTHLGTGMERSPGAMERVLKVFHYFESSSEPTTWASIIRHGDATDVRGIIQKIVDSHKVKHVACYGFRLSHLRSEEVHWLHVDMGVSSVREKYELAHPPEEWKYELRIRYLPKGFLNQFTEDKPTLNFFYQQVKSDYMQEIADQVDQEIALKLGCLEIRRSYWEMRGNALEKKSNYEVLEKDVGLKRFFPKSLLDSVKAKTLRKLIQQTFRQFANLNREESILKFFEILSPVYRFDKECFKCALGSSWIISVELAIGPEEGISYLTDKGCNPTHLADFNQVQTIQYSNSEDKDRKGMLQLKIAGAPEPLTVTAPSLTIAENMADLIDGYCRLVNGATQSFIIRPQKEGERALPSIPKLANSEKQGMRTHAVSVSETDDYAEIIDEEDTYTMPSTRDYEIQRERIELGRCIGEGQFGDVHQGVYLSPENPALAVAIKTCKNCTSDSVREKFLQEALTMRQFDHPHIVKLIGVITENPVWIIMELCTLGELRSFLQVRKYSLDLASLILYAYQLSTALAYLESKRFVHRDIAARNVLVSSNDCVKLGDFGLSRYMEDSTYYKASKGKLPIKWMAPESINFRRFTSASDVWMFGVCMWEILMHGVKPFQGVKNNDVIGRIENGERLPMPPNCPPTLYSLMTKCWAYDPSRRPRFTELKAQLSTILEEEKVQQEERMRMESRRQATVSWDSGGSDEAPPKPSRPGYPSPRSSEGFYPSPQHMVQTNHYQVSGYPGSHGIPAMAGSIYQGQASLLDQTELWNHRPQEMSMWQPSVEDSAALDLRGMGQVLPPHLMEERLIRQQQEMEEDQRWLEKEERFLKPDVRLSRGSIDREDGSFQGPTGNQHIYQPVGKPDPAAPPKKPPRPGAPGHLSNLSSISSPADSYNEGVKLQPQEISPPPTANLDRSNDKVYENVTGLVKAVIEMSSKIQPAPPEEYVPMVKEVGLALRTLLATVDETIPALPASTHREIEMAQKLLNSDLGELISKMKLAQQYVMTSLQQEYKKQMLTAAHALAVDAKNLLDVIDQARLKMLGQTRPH
T2 sequence (Q05397 whole entry): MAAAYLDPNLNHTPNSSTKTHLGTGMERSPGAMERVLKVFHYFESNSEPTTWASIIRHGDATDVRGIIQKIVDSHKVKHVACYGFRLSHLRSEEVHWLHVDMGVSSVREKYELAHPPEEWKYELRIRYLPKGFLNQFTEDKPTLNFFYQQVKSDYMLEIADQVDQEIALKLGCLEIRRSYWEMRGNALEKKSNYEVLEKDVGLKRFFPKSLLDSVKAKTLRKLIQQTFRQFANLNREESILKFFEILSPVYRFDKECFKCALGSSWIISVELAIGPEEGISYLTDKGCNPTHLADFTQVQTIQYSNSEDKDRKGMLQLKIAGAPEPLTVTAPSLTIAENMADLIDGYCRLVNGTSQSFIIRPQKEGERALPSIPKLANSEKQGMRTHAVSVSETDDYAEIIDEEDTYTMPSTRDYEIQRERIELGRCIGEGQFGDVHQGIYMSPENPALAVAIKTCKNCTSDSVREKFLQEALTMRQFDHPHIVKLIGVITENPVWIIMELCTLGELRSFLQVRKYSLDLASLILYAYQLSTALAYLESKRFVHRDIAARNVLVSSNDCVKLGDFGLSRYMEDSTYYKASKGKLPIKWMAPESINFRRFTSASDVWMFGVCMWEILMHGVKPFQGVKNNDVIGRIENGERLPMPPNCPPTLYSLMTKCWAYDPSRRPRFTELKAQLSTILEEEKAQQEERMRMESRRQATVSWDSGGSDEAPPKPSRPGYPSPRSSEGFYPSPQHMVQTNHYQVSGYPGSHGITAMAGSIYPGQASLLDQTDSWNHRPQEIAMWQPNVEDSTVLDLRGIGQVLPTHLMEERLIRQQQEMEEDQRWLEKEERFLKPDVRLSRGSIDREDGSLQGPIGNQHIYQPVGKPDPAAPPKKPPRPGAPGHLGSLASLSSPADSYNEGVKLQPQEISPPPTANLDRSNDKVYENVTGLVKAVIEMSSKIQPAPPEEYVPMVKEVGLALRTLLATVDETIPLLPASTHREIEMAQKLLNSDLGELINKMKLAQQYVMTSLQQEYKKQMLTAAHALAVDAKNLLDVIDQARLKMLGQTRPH
T3 sequence (P04629 33-796): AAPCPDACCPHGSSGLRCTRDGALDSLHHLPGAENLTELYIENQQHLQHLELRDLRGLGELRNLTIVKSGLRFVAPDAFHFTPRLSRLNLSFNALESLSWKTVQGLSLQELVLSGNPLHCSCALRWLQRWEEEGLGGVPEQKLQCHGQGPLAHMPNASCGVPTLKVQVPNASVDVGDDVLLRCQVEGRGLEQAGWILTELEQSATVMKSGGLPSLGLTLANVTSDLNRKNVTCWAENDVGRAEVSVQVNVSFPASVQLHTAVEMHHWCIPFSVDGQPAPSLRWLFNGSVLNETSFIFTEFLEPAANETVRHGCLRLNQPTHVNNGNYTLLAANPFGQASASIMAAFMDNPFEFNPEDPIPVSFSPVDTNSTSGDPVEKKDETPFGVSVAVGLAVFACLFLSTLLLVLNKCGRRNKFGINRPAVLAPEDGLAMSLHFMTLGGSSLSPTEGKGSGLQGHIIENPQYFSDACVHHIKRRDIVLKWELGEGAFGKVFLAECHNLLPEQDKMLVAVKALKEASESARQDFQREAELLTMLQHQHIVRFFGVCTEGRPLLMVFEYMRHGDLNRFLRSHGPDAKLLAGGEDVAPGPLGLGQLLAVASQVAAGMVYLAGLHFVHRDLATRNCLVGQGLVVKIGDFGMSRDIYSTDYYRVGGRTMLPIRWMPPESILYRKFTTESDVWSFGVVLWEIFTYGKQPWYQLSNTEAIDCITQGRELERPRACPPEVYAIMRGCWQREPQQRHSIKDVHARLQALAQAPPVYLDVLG

Broadly, the inhibition is the share of the control response that was lost under treatment. A word on the IC50: it is the midpoint of a concentration-inhibition curve. Higher therefore signals a need for much substance. `CNC(=O)c1ccccc1Nc1cc(Nc2ccc(N3CCOCC3)cc2OC)ncc1C(F)(F)F` [PND-1186]: the “Src pY416 and Src expression levels in spheroids” value in data set [1] (PND-1186-treated 3D spheroids) is listed as “no change”. In addition, in data set [1] (adherent 4T1 cells, 1 h, PND-1186 to 1 μM), the “Src pY416 phosphorylation” value was “did not affect c-Src activity”. In addition, in data set [2], the inhibition at 0.4 µM was 50 to 60%. Besides, the “annexin V positive staining, suspended cells” value in [3] (0.1 to 0.4 μM) is given as 50-60%. Further, the “annexin V-positive cells, adherent conditions” value in data set [3] (up to 1.0 μM) was “did not increase”. The same compound showed an IC50 in [4] of about 100 nM. Moreover, the “cell detachment or death” value in [5] (1 μM over 22 h) is reported as “No evidence of 4T1 cell detachment or death”. This compound showed a wound closure in data set [5] (1 μM, 22 h (DMSO 89%)) of 40%. The inhibition at 1 µM in [6] is over 50%. For the same compound, the “FAK pY397 phosphorylation in 4T1 spheroids” value in data set [7] (0.1 μM, 3D spheroids) is on record as “potently inhibited”. For the same compound, the “FAK pY397 phosphorylation, adherent and suspended cells” value in [7] (0.1 μM, 24 h) is “sufficient to inhibit FAK pY397 phosphorylation”. In addition, the “maximal reduction of FAK pY397 phosphorylation” value in [7] (4T1 cells, 0.1 to 1.0 μM, 1 h) is listed as about 80%. The “MDA-MB-231 apoptosis in suspension” value in [8] was “did not promote increased MDA-MB-231 apoptosis”. In [9], the “accumulation of tumor cells in the lungs” value is on record as “significantly inhibited the accumulation of tumor cells in the lungs”. Moreover, in data set [10], the “TNFα-triggered IL-6 release” value is recorded as “inhibited IL-6 release in a dose-dependent manner”. For the same compound, in [11], the “cleaved caspase 3, adherent cells” value is “not detectable” and the “cleaved caspase 3, suspended cells” value was “increased in PND-1186-treated suspended cells (maximal at 0.4 μM)”.
